Measured values reported in US20100061982A1, “3-SUBSTITUTED-1H-INDOLE, 3-SUBSTITUTED-1H-PYRROLO[2,3-B]PYRIDINE AND 3-SUBSTITUTED-1H-PYRROLO[3,2-B]PYRIDINE COMPOUNDS, THEIR USE AS MTOR KINASE AND PI3 KINASE INHIBITORS, AND THEIR SYNTHESES” (priority 2008, published 2010).
Values after ≈ are worked out from the molar mass of the structure shown. Like-named read-outs stand apart in the source and are kept apart here.

Key:
mTOR = mTOR (Homo sapiens, UniProt P42345); assay: mTOR Enzyme Assay (DELFIA, purified enzyme); assay type: biochemical; parameters: FLAG
PI3K alpha = PI3K alpha (Homo sapiens, UniProt P42336); assay: PI3K-alpha Fluorescence Polarization Assay; assay type: biochemical
[1] = Microsome Stability (15 min), human; assay type: in vitro ADME; settings: microsomes
[2] = Microsome Stability (15 min), nude mouse; assay type: in vitro ADME; settings: microsomes
[3] = Microsome Stability (15 min), rat; assay type: in vitro ADME; settings: microsomes, Phase I (NADPH), read-out: Microsome Stability (15 min) T ½ Phase I rat
[4] = PAMPA permeability pH 7.4
Solubility pH 7.4 = settings: pH 7.4, aqueous buffer
[5] = Buffer Stability (37° C.)
[6] = Plasma Stability (37° C.), rat
[7] = CACO2 permeability a-b/b-a; assay type: in vitro ADME; settings: human, Caco-2; for Papp A→B: a − b (first value of cell), read-out: CACO2 Pe a − b; for Papp B→A: b − a (second value of cell), read-out: CACO2 Pe b − a
[8] = In vivo blood/plasma and tumor levels of prodrug and metabolites after 50 mg, kg po; settings: 50 mg
[9] = Phase I (NADPH), read-out: Microsome Stability (15 min) T ½ Phase I human
[10] = Phase I (NADPH), read-out: Microsome Stability (15 min) T ½ Phase I nude mouse
[11] = nude, mouse, Phase I (NADPH), read-out: Microsome Stability (15 min) T ½ Phase I nude mouse
[12] = value after the slash in Table VIc, read-out: Microsome Stability (15 min) T ½ human, second value of cell

Sequence of PI3K alpha (P42336 whole entry, species assumed): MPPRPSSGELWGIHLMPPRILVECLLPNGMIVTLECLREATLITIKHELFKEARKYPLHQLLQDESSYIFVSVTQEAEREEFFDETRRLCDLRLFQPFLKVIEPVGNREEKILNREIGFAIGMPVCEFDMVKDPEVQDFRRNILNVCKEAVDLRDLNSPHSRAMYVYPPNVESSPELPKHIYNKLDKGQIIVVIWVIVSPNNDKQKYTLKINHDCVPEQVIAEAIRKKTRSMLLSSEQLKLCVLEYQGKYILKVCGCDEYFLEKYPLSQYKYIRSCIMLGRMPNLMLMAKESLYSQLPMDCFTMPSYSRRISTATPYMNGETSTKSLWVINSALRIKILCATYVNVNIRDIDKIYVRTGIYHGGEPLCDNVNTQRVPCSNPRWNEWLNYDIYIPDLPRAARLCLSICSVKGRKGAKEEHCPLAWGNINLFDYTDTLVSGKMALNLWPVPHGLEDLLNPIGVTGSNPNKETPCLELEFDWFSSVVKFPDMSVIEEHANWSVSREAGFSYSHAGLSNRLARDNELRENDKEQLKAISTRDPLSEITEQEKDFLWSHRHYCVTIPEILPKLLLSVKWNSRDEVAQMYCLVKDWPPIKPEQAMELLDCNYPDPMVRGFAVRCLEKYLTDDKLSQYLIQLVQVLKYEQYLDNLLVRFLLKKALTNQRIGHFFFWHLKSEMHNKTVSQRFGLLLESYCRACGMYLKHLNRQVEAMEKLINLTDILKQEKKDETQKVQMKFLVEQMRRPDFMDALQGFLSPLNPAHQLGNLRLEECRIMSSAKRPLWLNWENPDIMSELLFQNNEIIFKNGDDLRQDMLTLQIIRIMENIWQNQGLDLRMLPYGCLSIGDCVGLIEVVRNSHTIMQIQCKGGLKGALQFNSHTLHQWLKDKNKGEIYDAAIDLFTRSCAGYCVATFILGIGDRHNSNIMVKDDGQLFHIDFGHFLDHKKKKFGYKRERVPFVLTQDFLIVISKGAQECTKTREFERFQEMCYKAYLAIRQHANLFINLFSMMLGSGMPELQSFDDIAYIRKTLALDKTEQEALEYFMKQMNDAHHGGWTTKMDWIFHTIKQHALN
Sequence of PI3K alpha (P27986 whole entry partner, species assumed): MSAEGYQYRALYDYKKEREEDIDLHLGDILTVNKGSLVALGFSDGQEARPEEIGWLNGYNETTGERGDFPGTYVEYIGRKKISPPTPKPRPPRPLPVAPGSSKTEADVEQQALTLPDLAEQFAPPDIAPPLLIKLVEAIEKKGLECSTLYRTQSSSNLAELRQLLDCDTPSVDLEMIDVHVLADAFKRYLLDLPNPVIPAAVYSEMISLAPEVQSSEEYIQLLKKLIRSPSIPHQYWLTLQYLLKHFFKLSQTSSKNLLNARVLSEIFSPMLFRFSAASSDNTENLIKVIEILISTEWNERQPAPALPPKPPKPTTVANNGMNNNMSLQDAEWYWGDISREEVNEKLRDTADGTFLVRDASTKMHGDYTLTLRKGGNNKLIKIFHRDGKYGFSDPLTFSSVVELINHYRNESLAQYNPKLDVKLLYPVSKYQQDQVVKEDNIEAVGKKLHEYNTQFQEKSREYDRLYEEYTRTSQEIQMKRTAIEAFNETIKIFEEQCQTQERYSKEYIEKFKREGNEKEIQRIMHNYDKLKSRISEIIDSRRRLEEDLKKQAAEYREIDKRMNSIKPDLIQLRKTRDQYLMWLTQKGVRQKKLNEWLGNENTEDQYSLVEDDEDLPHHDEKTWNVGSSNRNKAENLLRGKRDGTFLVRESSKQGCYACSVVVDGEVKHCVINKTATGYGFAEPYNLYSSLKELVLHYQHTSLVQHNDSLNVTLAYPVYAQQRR

| half-life [1, 9] | Structure (SMILES) | IC50 (mTOR; read-out: mTOR Mean IC50) | half-life [3] | PAMPA Pe [4] | IC50 (PI3K alpha) | solubility (Solubility pH 7.4) | also measured |
| --- | --- | --- | --- | --- | --- | --- | --- |
|  | COc1ccc2c(c1)c(/C=C1\Oc3ccc(O)cc3C1=O)c(C)n2CCN1CCN(C)CC1 [(2Z)-5-hydroxy-2-({5-methoxy-2-methyl-1-[2-(4-methylpiperazin-1-yl)ethyl]-1H-indol-3-yl}methylene)-1-benzofuran-3(2H)-one] | 1050 nM |  |  |  |  |  |
|  | COc1ccc2[nH]c(-c3ccccc3)c(/C=C3\Oc4cc(OP(=O)(O)c5ccccc5)ccc4C3=O)c2c1 [Example 26, (2Z)-2-[(5-methoxy-2-phenyl-1H-indol-3-yl)methylene]-3-oxo-2,3-dihydro-1-benzofuran-6-yl hydrogen phenylphosphonate] | 2200 nM | > 30 min | 0 10e−6 cm/s | 108 nM | 11 µg/mL (≈ 21 µM) |  |
|  | CCOC(=O)CNC(=O)Oc1ccc2c(c1)O/C(=C\c1cn(CCCN(C)C)c3ccc(OC)cc13)C2=O [Example 25, ethyl N-({[(2Z)-2-({1-[3-(dimethylamino)propyl]-5-methoxy-1H-indol-3-yl}methylene)-3-oxo-2,3-dihydro-1-benzofuran-6-yl]oxy}carbonyl)glycinate] | 610 nM |  | 0 10e−6 cm/s | 86 nM | > 100 µg/mL |  |
| 4 min | COc1ccc2[nH]c(-c3ccccc3)c(/C=C3\Oc4cc(OC(=O)c5ccccc5)ccc4C3=O)c2c1 [Example 17, (2Z)-2-[(5-methoxy-2-phenyl-1H-indol-3-yl)methylene]-3-oxo-2,3-dihydro-1-benzofuran-6-yl benzoate] |  | 5 min | 0 10e−6 cm/s |  | 4 µg/mL (≈ 8.2 µM) | IC50 (PI3K alpha; read-out: PI3K alpha Mean IC50): 157 nM; half-life [2, 11]: > 30 min; Buffer Stability (37° C.) % Remaining (at 16-23 hours) SGF ([5]; SGF): 96%; Buffer Stability (37° C.) % Remaining (at 16-23 hours) SIF ([5]; SIF): 0%; Buffer Stability (37° C.) % Remaining (at 16-23 hours) pH 1 ([5]; pH 1): 95%; Buffer Stability (37° C.) % Remaining (at 16-23 hours) pH 4.5 ([5]; pH 4.5): 93%; Buffer Stability (37° C.) % Remaining (at 16-23 hours) pH 6.6 ([5]; pH 6.6): 95%; Buffer Stability (37° C.) % Remaining (at 16-23 hours) pH 7.4 ([5]; pH 7.4): 32%; Buffer Stability (37° C.) % Remaining (at 16-23 hours) pH 9 ([5]; pH 9): 0%; Plasma Stability (37° C.) % Remaining (3-3.5 hours) rat [6]: 2% |
|  | CNC(=O)Oc1ccc2c(c1)C(=O)/C(=C/c1cn(CCN3CCN(C)CC3)c3ccc(OC)cc13)O2 [Example 45, (2Z)-2-({5-methoxy-1-[2-(4-methylpiperazin-1-yl)ethyl]-1H-indol-3-yl}methylene)-3-oxo-2,3-dihydro-1-benzofuran-5-yl methylcarbamate] | > 4000 nM | 9 min | 0.43 10e−6 cm/s |  | 63 µg/mL (≈ 128 µM) |  |
|  | COc1ccc2c(c1)c(/C=C1\Oc3cc(O)cc(OC(=O)N(C)C)c3C1=O)c(C)n2CCN1CCN(C)CC1 [Example 39, (2Z)-6-hydroxy-2-({5-methoxy-2-methyl-1-[2-(4-methylpiperazin-1-yl)ethyl]-1H-indol-3-yl}methylene)-3-oxo-2,3-dihydro-1-benzofuran-4-yldimethylcarbamate] |  | 27 min | 0 10e−6 cm/s | 842 nM | > 100 µg/mL | IC50 (mTOR): > 4000 nM |
| > 30 min | Cn1cc(/C=C2\Oc3cc(O)cc(O)c3C2=O)c2c(-c3ccccc3)ccnc21 [(2Z)-4,6-dihydroxy-2-[(1-methyl-4-phenyl-1H-pyrrolo[2,3-b]pyridin-3-yl)methylene]-1-benzofuran-3(2H)-one] |  | > 30 min | 0.09 10e−6 cm/s |  | 1 µg/mL (≈ 2.6 µM) | IC50 (PI3K alpha; read-out: PI3K alpha Mean IC50): 62.8 nM; Papp A→B [7]: 66.3 ×10⁻⁶ cm/s; Papp B→A [7]: 58.1 ×10⁻⁶ cm/s; half-life [1, 12]: 6 min; half-life [2, 11]: 30 min; half-life ([2]; nude, mouse, value after the slash in Table VIc, read-out: Microsome Stability (15 min) T ½ nude mouse, second value of cell): 2 min |
|  | COc1ccc2c(c1)c(/C=C1\Oc3cc(OC(=O)N(C)C)cc(O)c3C1=O)c(C)n2CCN1CCN(C)CC1 [Example 41, (2Z)-4-hydroxy-2-({5-methoxy-2-methyl-1-[2-(4-methylpiperazin-1-yl)ethyl]-1H-indol-3-yl}methylene)-3-oxo-2,3-dihydro-1-benzofuran-6-yldimethylcarbamate] |  |  |  | 1130 nM |  | IC50 (mTOR): 13000 nM |
| 28 min | Cn1cc(/C=C2\Oc3cccc(O)c3C2=O)c2c(N3CC4CCC(C3)O4)ccnc21 [(2Z)-4-hydroxy-2-{[1-methyl-4-(8-oxa-3-azabicyclo[3.2.1]oct-3-yl)-1H-pyrrolo[2,3-b]pyridin-3-yl]methylene}-1-benzofuran-3(2H)-one] |  | 2 min | 0.79 10e−6 cm/s |  |  | Papp A→B [7]: 5.5 ×10⁻⁶ cm/s; Papp B→A [7]: 8.1 ×10⁻⁶ cm/s; half-life [1, 12]: 3 min; half-life [2, 11]: 13 min |
|  | COc1ccc2c(c1)c(/C=C1\Oc3cc(OC(=O)N4CCN(Cc5ccccc5)CC4)cc(OC(=O)N4CCN(Cc5ccccc5)CC4)c3C1=O)cn2CCCN(C)C [Example 37, (2Z)-2-({1-[3-(dimethylamino)propyl]-5-methoxy-1H-indol-3-yl}methylene)-3-oxo-2,3-dihydro-1-benzofuran-4,6-diyl bis(4-benzylpiperazine-1-carboxylate)] | 1650 nM |  | 0 10e−6 cm/s | > 10000 nM |  |  |
|  | COc1ccc2c(c1)c(/C=C1\Oc3cc(OC(=O)N4CCN(C)CC4)cc(OC(=O)N4CCN(C)CC4)c3C1=O)cn2CCCN(C)C [Example 36, (2Z)-2-({1-[3-(dimethylamino)propyl]-5-methoxy-1H-indol-3-yl}methylene)-3-oxo-2,3-dihydro-1-benzofuran-4,6-diyl bis(4-methylpiperazine-1-carboxylate)] | 1080 nM |  | 0.23 10e−6 cm/s | > 10000 nM | 36 µg/mL (≈ 54.5 µM) |  |
|  | COc1ccc2c(c1)c(/C=C1\Oc3cc(OC(=O)N(C)C)cc(O)c3C1=O)cn2CCCN(C)C [Example 42, (2Z)-2-({1-[3-(dimethylamino)propyl]-5-methoxy-1H-indol-3-yl}methylene)-4-hydroxy-3-oxo-2,3-dihydro-1-benzofuran-6-yl dimethylcarbamate] | > 20000 nM |  |  | 2800 nM |  |  |
|  | COc1ccc2c(c1)c(/C=C1\Oc3cc(O)cc(OC(=O)N(C)C)c3C1=O)cn2CCCN(C)C [Example 40, (2Z)-2-({1-[3-(dimethylamino)propyl]-5-methoxy-1H-indol-3-yl}methylene)-6-hydroxy-3-oxo-2,3-dihydro-1-benzofuran-4-yl dimethylcarbamate] | > 20000 nM |  |  | 5880 nM |  |  |

| Structure (SMILES) | half-life [1, 9] | IC50 (mTOR; read-out: mTOR Mean IC50) | half-life [3] | PAMPA Pe [4] | IC50 (PI3K alpha) | solubility (Solubility pH 7.4) | also measured |
| --- | --- | --- | --- | --- | --- | --- | --- |
| COc1ccc2[nH]c(-c3ccccc3)c(/C=C3\Oc4cc(OC(=O)N(C(C)C)C(C)C)cc(OC(=O)N(C(C)C)C(C)C)c4C3=O)c2c1 [Example 31, (2Z)-2-[(5-methoxy-2-phenyl-1H-indol-3-yl)methylene]-3-oxo-2,3-dihydro-1-benzofuran-4,6-diyl bis(diisopropylcarbamate)] | 7 min | 510 nM | 9 min | 0 10e−6 cm/s |  |  | IC50 (PI3K alpha; read-out: PI3K alpha Mean IC50): 270 nM; half-life [2, 10]: > 30 min |
| COc1ccc2[nH]c(-c3ccccc3)c(/C=C3\Oc4cc(OC(=O)N(C)C)cc(OC(=O)N(C)C)c4C3=O)c2c1 [Example 30, (2Z)-2-[(5-methoxy-2-phenyl-1H-indol-3-yl)methylene]-3-oxo-2,3-dihydro-1-benzofuran-4,6-diyl bis(dimethylcarbamate)] | < 1 min |  | 19 min | 0 10e−6 cm/s | 2220 nM |  | Papp A→B [7]: 0.19 ×10⁻⁶ cm/s; Papp B→A [7]: 0.04 ×10⁻⁶ cm/s; half-life [2, 10]: > 30 min; plasma prodrug concentration ([8]; 0.5 h): 29 ng, ml; plasma prodrug concentration ([8]; 2 h): 65 ng, ml; plasma prodrug concentration ([8]; 6 h (third value)): 20 ng, ml |
